{"source": "patent US20250312416A1", "about": "“METHOD AND PHARMACEUTICAL COMPOSITION FOR CARTILAGE REGENERATION” (FAR EASTERN MEMORIAL HOSPITAL, priority 2024, published 2025)", "key": {"UC-MSCs": {"test_system": "UC-MSCs", "assay": "Alcian blue staining of chondrogenic pellets (GAG), UC-MSCs", "format": "cell-based", "settings": "in the presence of TGF-beta", "description": "FIG. 13A provides flowchart illustrating the protocol for peptide treatment and sample collection. […] TGF-beta influenced the expression of chondrogenic genes, including ITGB1 and COMP. […] Treatment with CXCL14/CXCL12 peptides increased GAG content during chondrogenesis in the presence of TGF-beta.\nTo further validate the role of CXCL14-P and CXCL12-P in regulating chondrogenesis, we compared their effects on another MSC source, umbilical cord-derived mesenchymal stem cells (UC-MSCs). It is important to note that the chondrogenic induction medium contained TGF-β. During chondrogenesis, we observed that the chondrogenic patterns in UC-MSCs were lower than those in ADSCs (FIG. 12). Subsequently, we assessed the chondrogenic potential of UC-MSCs following stimulation with CXCL14-P and CXCL12-P (FIG. 13A). […] Although the expression of chondrogenic genes (FIG. 13B) and GAG content (FIG. 13C) in UC-MSCs was not as pronounced as in ADSCs, the findings confirm that CXCL14-P and CXCL12-P can robustly stimulate chondrogenesis across different MSC sources."}, "ADSCs": {"test_system": "ADSCs", "assay": "Cellular uptake of fluorescently labeled peptides by fluorescence microscopy", "format": "cell-based, human", "description": "Cell-penetrating properties of CXCL14-P and CXCL12-P peptides in ADSCs were analyzed. ADSCs were incubated with 10 ng of FITC-conjugated peptides at 37° C. for one day, followed by refreshing the chondrogenic medium. Peptide internalization was evaluated through fluorescence microscopy on days 1, 3, and 7.\nWe further explored whether peptides derived from CXCL14 and CXCL12 have the capacity to induce chondrogenesis in MSCs from different sources. To assess their potential, ADSCs were utilized in the study to evaluate the chondrogenic capacity of CXCL14-P and CXCL12-P on day 7 (FIG. 10A). […] FIG. 11 illustrates the cell-penetrating properties of CXCL14-P and CXCL12-P peptides in ADSCs, analyzed at different time points. ADSCs were incubated with FITC-conjugated peptides for one day, after which the chondrogenic medium was refreshed. […] Collectively, these observations indicate that CXCL14-P and CXCL12-P have the ability to stimulate chondrogenesis and further amplify the effects of TGF-β during the chondrogenic process."}, "clinical-grade ADSCs": {"test_system": "clinical-grade ADSCs", "assay": "Real-time PCR of chondrogenic genes in ADSCs", "format": "cell-based, human", "description": "Real-time PCR analysis was conducted on day 7 for CXCL12/CXCL14 peptides treated ADSCs, evaluating the expression of COMP, SOX9, COL2A1, ACAN, ITGB1, and SOSTDC1 genes. Cells were harvested, and RNA extraction was performed using a LightCycler® (Roche Applied Science). The fold change in gene expression on the y-axis was calculated relative to the same gene expression in untreated chondrocytes. Statistical analysis was conducted using one-way ANOVA. Significance levels are denoted as follows: * p<0.05, ** p<0.01, *** p<0.001, and **** p<0.0001 for comparisons between PBS treatments and the untreated group.\nReal-time PCR analysis was performed on day 7 for ADSCs treated with CXCR4 agonists, assessing the expression of COMP, SOX9, COL2A1, ACAN, ITGB1, CXCL14, and SOSTIC1 genes. Cellular harvest, RNA extraction, and gene expression quantification were conducted using a LightCycler® (Roche Applied Science). The fold change in gene expression on the y-axis was calculated relative to the same gene expression in untreated chondrocytes. Statistical analysis was executed through one-way ANOVA. Significance levels are represented as follows: * p<0.05, ** p<0.01, *** p<0.001, and **** p<0.0001, indicating the significance of comparisons between PBS treatments and the untreated group.\nAlcian blue staining was used to assess the chondrogenic differentiation of ADSC pellets. […] Treatment with CXCL14-PM1, CXCL14-PM2, CXCL14-PM3, and CXCR4-PM1 was sufficient to enhance the expression of chondrogenic genes in ADSCs. On day 7, real-time PCR was performed to analyze the expression of key chondrogenic markers, including SOX9, COL2A1, COMP, ACAN, ITGB1, CXCL14, and CXCR4, in ADSCs treated with these modified peptides. ADSCs were exposed to distinct peptide modifications derived from CXCL12, CXCL14, and CXCR4 at a concentration of 10 ng for a one-day treatment, after which the medium was replaced with fresh peptide-free medium. At the end of the treatment period, RNA was extracted to evaluate the expression levels of chondrogenesis-related cytokine genes. Gene expression quantification was performed using a LightCycler system (Roche Applied Science), and fold changes were calculated relative to untreated control ADSCs. […] FIG. 16(D) provides a summary of the results for alanine substitution with positively or negatively charged amino acids in CXCL12, CXCL14, and CXCR4 peptides.\nADSCs were treated with CXCL14-P, CXCL14-P1, or CXCL14-P2, respectively, at a concentration of 10 ng for 24 hours, after which the medium was replaced with fresh peptide-free medium. On day 7, total RNA was extracted, and real-time PCR analysis was performed to assess the expression levels of key chondrogenic markers, including ACAN, COL2A1, SOX9, and COMP. Gene expression levels were quantified using a LightCycler system (Roche Applied Science), with fold changes calculated relative to untreated control ADSCs. […] Immunofluorescence staining was performed to detect Collagen Type II, SOX9, COMP, and nuclei (Hoechst 33342) in 3D ADSC spheroids (middle panel). […]\nHuman IPFP-MSCs and ADSCs were expanded in Dulbecco's Modified Eagle's Medium (DMEM, Gibco, cat. no 2145484) with 10% FBS under a 37° C., 5% CO2 atmosphere. MSCs collected and cell extractions were determined gene expression levels of cytokines and chondrogenic markers using a LightCycler® (Roche Applied Science). The fold change in gene expression on the y-axis was calculated based on untreated cell gene expression."}}, "note": "Entries after “also recorded” stand apart in the source; their conditions may differ."}
{"sequence": "ITTKSVSRYRGQEH [CXCL14-P]", "values": [{"measurement": "GAG content (Alcian blue)", "setting": "UC-MSCs", "result": "increased"}, {"measurement": "cellular uptake / detectability of peptide", "setting": "ADSCs; 10 ng FAM-labeled, 24 hours then peptide-free medium, monitored to day 7", "result": "detectable on day 1 but became undetectable by day 7"}, {"measurement": "peptide internalization (cell penetration)", "setting": "ADSCs; 10 ng FITC-conjugated peptide, 37° C. for one day, observed days 1, 3, 7", "result": "remain detectable up to day 7"}, {"measurement": "expression of chondrogenic genes (COMP, SOX9, COL2A1, ACAN, ITGB1, SOSTDC1)", "setting": "clinical-grade ADSCs; day 7, peptides compared to CXCL12/CXCL14 proteins, listed as CXCL14 peptide", "result": "significantly upregulated; also recorded: greater ability"}, {"measurement": "expression of chondrogenic genes (COMP, SOX9, COL2A1, ACAN, ITGB1)", "setting": "clinical-grade ADSCs; day 7 of treatment with peptide", "result": "significantly upregulated"}, {"measurement": "chondrogenic genes", "setting": "clinical-grade ADSCs; in the absence of TGF-β", "result": "evident"}, {"measurement": "expression of chondrogenic genes ITGB1 and COMP", "setting": "clinical-grade ADSCs; in the presence of TGF-β, day 7", "result": "significantly enhanced"}]}
